Measurements published in BindingDB's records for doi:10.1016/j.bmcl.2009.04.124 (H. Lee Moffitt Cancer Center, 2009).

Target: E3 ubiquitin-protein ligase Mdm2 (Homo sapiens, UniProt Q00987)
Assay: AlphaScreen Assay
Conditions: pH 7.4; 24 °C
Method: When two proteins interact (one of which is conjugated to the donor bead and the other to the acceptor bead) the beads are brought into close proximity. Excitation of a photosensitizer in the donor bead results in the production of singlet oxygen that diffuses to and reacts with a chemiluminescent molecule in the acceptor bead. […] Nickel acceptor beads and glutathione donor beads were added. Following 1 h incubation at 24 deg C, the mixture was analyzed in a fluorometer at an excitation wavelength of 680 nm. Nutlin-3a obtained from Cayman Chemical was used as a control. The IC50 values reported are from runs repeated four times.

Chain of E3 ubiquitin-protein ligase Mdm2 (Q00987 whole entry): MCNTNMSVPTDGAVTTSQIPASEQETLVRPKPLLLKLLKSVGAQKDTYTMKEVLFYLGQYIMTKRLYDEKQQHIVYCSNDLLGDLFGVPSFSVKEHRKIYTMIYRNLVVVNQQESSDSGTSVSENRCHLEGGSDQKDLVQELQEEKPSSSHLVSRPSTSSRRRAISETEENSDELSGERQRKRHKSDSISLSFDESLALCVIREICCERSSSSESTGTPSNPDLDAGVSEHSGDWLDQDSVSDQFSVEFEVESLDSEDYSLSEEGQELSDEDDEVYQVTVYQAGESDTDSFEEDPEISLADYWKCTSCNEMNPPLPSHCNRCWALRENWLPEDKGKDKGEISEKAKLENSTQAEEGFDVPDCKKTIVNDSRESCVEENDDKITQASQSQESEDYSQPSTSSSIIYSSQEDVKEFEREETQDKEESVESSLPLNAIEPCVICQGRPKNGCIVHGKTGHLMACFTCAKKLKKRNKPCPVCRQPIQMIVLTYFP

Question: Which IC50 does the source give for `c1ccc(C(N=Nc2nc3ccccc3s2)c2ccccn2)cc1` (stereo unspecified) [NSC-333003] here?
Answer: The IC50 was 25 µM.
